Experimental data as given in ChEMBL document CHEMBL5727886, “Bicyclic compounds as dual ATX/CA inhibitors” (2020).

Target: Carbonic anhydrase 2 (Homo sapiens, UniProt P00918)
Experiment: Then 30 μL of 16 nM hCA II solution was added (8 nM final concentration), mixed five times. 30 μL of 4-NPA substrate solution was added (2.5 mM final concentration), mixed five times.

## NS(=O)(=O)c1ccc(C(=O)N2C[C@H]3CN(C(=O)/C=C/c4ccc(OC(F)(F)F)cc4)C[C@]3(F)C2)c(F)c1 (relative stereo)
  IC50: 6 nM
